Each compound was assayed against T1, human ALK5 (kinase domain, ALK5 T204D) (Homo sapiens, UniProt P36897, T204D) (assay: ALK5 kinase assay ([33P] phosphate incorporation into casein)). Conditions: casein substrate, 1 μM unlabelled ATP.
T1 construct: The kinase domain of human ALK5 (amino acids 200-503); made in house; host or cells: insect cells (baculovirus)
T1 sequence (P36897 200-503 T204D): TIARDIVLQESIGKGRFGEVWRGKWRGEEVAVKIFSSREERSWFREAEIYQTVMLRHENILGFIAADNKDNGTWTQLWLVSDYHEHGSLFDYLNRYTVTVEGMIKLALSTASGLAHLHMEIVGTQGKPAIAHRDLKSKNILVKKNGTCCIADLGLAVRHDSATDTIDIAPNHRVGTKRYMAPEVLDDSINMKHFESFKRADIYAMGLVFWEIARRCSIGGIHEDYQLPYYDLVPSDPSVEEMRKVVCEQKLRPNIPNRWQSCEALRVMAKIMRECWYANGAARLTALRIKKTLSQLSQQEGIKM
Format: biochemical
Outline: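 His-tagged human ALK5 T204D kinase domain (aa 200-503, constitutively active, baculovirus/insect-cell expressed), 50 ng/well, preincubated 10 min with compound and dephosphorylated casein (200 μg/well) in Tris pH 7.4/MgCl2/MnCl2. Reaction started with 1 μM ATP plus [33P]ATP, 50 min at room temperature, EDTA-stopped; casein-bound 33P counted by scintillation after filter capture.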

| Structure (SMILES) | IC50 [nM] |
| --- | --- |
| CNCc1ccc(-c2cncc(-c3cc(-c4cccc(C)n4)nc4[nH]ccc34)c2)cc1 [Example 73, Methyl-(4-{5-[6-(6-methyl-pyridin-2-yl)-1H-pyrrolo[2,3-b]pyridin-4-yl]-pyridin-3-yl}-benzyl)-amine] | 17 |
| Cc1cccc(-c2nc(-c3cncc(C4=CCCC4)c3)c3cc[nH]c3n2)n1 [Example 74, 4-(5-Cyclopent-1-enyl-pyridin-3-yl)-2-(6-methyl-pyridin-2-yl)-7H-pyrrolo[2,3-d]pyrimidine] | 163 |
| Cc1cccc(-c2nc(-c3cncc(-c4cncc(CN(C)C)c4)c3)c3cc[nH]c3n2)n1 [Example 75] | 310 |
| CNCc1cncc(-c2cncc(-c3nc(-c4cccc(C)n4)nc4[nH]ccc34)c2)c1 [Example 76] | 117 |
| Cc1cccc(-c2nc(-c3cncc(-c4ccc(C(C)(C)N)cc4)c3)c3cc[nH]c3n2)n1 [Example 77, 1-Methyl-1-(4-{5-[2-(6-methyl-pyridin-2-yl)-7H-pyrrolo[2,3-d]pyrimidin-4-yl]-pyridin-3-yl}-phenyl)-ethylamine] | 9 |
| Cc1cccc(-c2nc(-c3cncc(-c4cncc(CO)c4)c3)c3cc[nH]c3n2)n1 [Example 78, {5′-[2-(6-Methyl-pyridin-2-yl)-7H-pyrrolo[2,3-d]pyrimidin-4-yl]-[3,3′]bipyridinyl-5-yl}-methanol] | 49 |
| Cc1cccc(-c2nc(-c3cncc(CO)c3)c3cc[nH]c3n2)n1 [Example 79, {5-[2-(6-Methyl-pyridin-2-yl)-7H-pyrrolo[2,3-d]pyrimidin-4-yl]-pyridin-3-yl}-methanol] | 1230 |
| Cc1cccc(-c2nc(-c3cncc(O)c3)c3cc[nH]c3n2)n1 [Example 80, 5-[2-(6-Methyl-pyridin-2-yl)-7H-pyrrolo[2,3-d]pyrimidin-4-yl]-pyridin-3-ol] | 239 |
| Cc1cccc(-c2nc(-c3cncc(-c4ccc(C(C)N)cc4)c3)c3cc[nH]c3n2)n1 (stereo not shown) [Example 81, 1-(4-{5-[2-(6-Methyl-pyridin-2-yl)-7H-pyrrolo[2,3-d]pyrimidin-4-yl]-pyridin-3-yl}-phenyl)-ethylamine] | 17 |
| Cc1cccc(-c2cc(-c3cncc(-c4ccc(CO)cc4)c3)c3cc[nH]c3n2)n1 [Example 82, (4-{5-[6-(6-Methyl-pyridin-2-yl)-1H-pyrrolo[2,3-b]pyridin-4-yl]-pyridin-3-yl}-phenyl)-methanol] | 12 |
| Cc1cccc(-c2nc(-c3cncc(-c4nnco4)c3)c3cc[nH]c3n2)n1 [Example 83, 2-(6-Methyl-pyridin-2-yl)-4-(5-[1,3,4]oxadiazol-2-yl-pyridin-3-yl)-7H-pyrrolo[2,3-d]pyrimidine] | 557 |
| Cc1cccc(-c2cc(-c3cncc(-c4ccc(CN)cc4)c3)c3cc[nH]c3n2)n1 [Example 84, 4-{5-[6-(6-Methyl-pyridin-2-yl)-1H-pyrrolo[2,3-b]pyridin-4-yl]-pyridin-3-yl}-benzylamine] | 36 |
| Cc1cccc(-c2nc(-c3cncc(-c4cccc(C(C)(C)N)c4)c3)c3cc[nH]c3n2)n1 [Example 85, 1-Methyl-1-(3-{5-[2-(6-methyl-pyridin-2-yl)-7H-pyrrolo[2,3-d]pyrimidin-4-yl]-pyridin-3-yl}-phenyl)-ethylamine] | 99 |
| Cc1cccc(-c2cc(-c3cncc(-c4cccc(CN)c4)c3)c3cc[nH]c3n2)n1 [Example 86, 3-{5-[6-(6-Methyl-pyridin-2-yl)-1H-pyrrolo[2,3-b]pyridin-4-yl]-pyridin-3-yl}-benzylamine] | 8 |
| Cc1cccc(-c2nc(-c3cncc(-c4ccc(C5CNCCN5)cc4)c3)c3cc[nH]c3n2)n1 (stereo not shown) [Example 87, 2-(6-Methyl-pyridin-2-yl)-4-[5-(4-piperazin-2-yl-phenyl)-pyridin-3-yl]-7H-pyrrolo[2,3-d]pyrimidine] | 10 |
| Cc1cccc(-c2cc(-c3cncc(-c4ccc(CN5CCOCC5)cc4)c3)c3cc[nH]c3n2)n1 [Example 88, 6-(6-Methyl-pyridin-2-yl)-4-[5-(4-morpholin-4-ylmethyl-phenyl)-pyridin-3-yl]-1H-pyrrolo[2,3-b]pyridine] | 20 |

— US8314112B2 (Novartis AG, priority 2008, dated 2012)
